Measured values published in patent US9834548B2, “Pyridazine compounds as JAK inhibitors” (Portola Pharmaceuticals, Inc., priority 2014, dated 2017).
pIC50: −log10 of the molar value.

Legend:
Type in all cases: biochemical
[1] = target: JAK1 (Homo sapiens (Human), UniProt P23458); assay: Purified kinase assay (Z'-LYTE), JAK1; settings: Table 1; read-out: JAK1 IC50
Method: (§1) JAK and TYK2 tyrosine phosphorylation activity is measured using the Z′-LYTE™ Technology developed by Invitrogen Corporation (Carlsbad, Calif.). For JAK1, JAK2 and JAK3 the Z′-LYTE™ Kinase Assay Kit-Tyr6 Peptide (part number PV4122) was used. For TYK2 the Z′-LYTE™ Kinase Assay Kit-Tyr6 Peptide (part number PV3192) was used. The Z′-LYTE™ biochemical assay employs a fluorescence resonance energy transfer (FRET) coupled-enzyme format and is based on the differential sensitivity of phosphorylated and non-phosphorylated peptides to proteolytic cleavage. The assay uses a synthetic peptide substrate that is labeled with a donor fluorophore (coumarin) and an acceptor fluorophore (fluorescein) that make up a FRET pair. In the primary reaction (the Kinase Reaction), the kinase transfers the γ-phosphate of ATP to a single tyrosine residue on the substrate, while the presence of a kinase inhibitor in the primary reaction suppresses phosphorylation. In the secondary reaction (the Development Reaction), a site-specific protease (the Development Reagent) is added. The development buffer quenches the Kinase Reaction, while the protease recognizes and cleaves non-phosphorylated Z′-LYTE™ peptide substrate. Cleavage disrupts FRET between the donor and acceptor fluorophores on the non-phosphorylated substrate, while uncleaved, phosphorylated substrate maintains FRET.
(§2) To test the ability of candidate molecules to inhibit JAK tyrosine phosphorylation activity, molecules are reconstituted in 100% DMSO and serially diluted 1:10 in polypropylene v-bottom microtiter plates. The candidate molecules are then diluted 1:25 into kinase buffer and 2.5 μl transferred into duplicate wells of a 384 well low volume black microtiter assay plate (Corning, USA). The final DMSO concentration in the assay is 1%. The kinase reaction contains 2.5 μl of a candidate molecule, 5 μl of catalytic domain recombinant Kinase enzyme+Tyr peptide substrate (Invitrogen, CA) and ATP (Invitrogen, CA). The kinase reaction is allowed to proceed for 1 hour at room temperature. The protease reaction is initiated by the addition of Development Reagent (Invitrogen, CA). After 1 hour incubation at room temperature the fluorescence is measured using a FlexStation plate reader (Molecular Devices, Sunnyvale, Calif.). The reader settings used are as follows: Fluorescence mode, endpoint, top read, excitation 400 nm, emission 445 nm and 520 nm, Auto Cutoff 435 nm and 515 nm, PMT sensitivity high, 6 reads per well Inhibition of JAK activity is calculated as the percent phosphorylation of substrate in the presence of inhibitor compared to the percent phosphorylation of substrate in the absence of inhibitor. IC50's were derived using Xlfit 4.3 (IDBS, UK), 4 parameter logistic model 205: Y=(A+((B−A)/(1+((C/x)^D)))).

[2] = target: JAK3 (Homo sapiens (Human), UniProt P52333); assay: Purified kinase assay (Z'-LYTE), JAK3; settings: Table 1; read-out: JAK3 IC50
Method: as §1, §2

[3] = target: JAK2 (Homo sapiens (Human), UniProt O60674); assay: Purified kinase assay (Z'-LYTE), JAK2; settings: Table 1; read-out: JAK2 IC50
Method: as §1, §2

Sequence of JAK1 (P23458 875-1153): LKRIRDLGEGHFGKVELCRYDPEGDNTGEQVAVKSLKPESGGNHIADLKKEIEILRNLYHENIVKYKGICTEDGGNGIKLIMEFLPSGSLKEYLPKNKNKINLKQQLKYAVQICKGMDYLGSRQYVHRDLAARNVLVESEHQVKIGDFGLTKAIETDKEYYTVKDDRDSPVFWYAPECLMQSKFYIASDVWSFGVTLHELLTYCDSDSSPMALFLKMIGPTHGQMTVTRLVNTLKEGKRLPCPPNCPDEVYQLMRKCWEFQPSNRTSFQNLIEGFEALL
Sequence of JAK2 (O60674 849-1124): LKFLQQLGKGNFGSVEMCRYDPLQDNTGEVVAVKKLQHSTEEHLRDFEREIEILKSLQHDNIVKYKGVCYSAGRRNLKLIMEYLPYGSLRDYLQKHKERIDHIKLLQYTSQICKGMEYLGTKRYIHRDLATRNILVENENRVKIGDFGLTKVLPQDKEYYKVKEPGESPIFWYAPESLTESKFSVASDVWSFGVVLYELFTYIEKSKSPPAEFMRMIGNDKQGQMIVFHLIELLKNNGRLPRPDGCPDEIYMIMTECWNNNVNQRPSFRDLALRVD
Sequence of JAK3 (P52333 822-1111): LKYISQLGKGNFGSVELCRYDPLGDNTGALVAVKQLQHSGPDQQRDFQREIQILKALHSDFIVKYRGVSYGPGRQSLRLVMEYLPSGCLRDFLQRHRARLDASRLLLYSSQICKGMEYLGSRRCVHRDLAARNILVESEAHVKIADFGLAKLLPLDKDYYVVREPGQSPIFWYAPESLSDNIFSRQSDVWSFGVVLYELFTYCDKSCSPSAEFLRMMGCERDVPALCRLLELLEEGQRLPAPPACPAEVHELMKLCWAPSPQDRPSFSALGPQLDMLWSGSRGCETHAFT

Row | SMILES | pIC50 [1] | pIC50 [2] | pIC50 [3]
1 | Cn1ccc(Nc2cc(NCc3cccc(F)c3)c(C(N)=O)nn2)n1 [Compound 67] | < 6.00 | 7.00 to 8.00 | 6.00 to 7.00
2 | CS(=O)(=O)Cc1ccc(Nc2cc(NCc3c(F)cccc3F)c(C(N)=O)nn2)cc1 [Compound 87] | 6.00 to 7.00 | 8.00 to 9.00 | 6.00 to 7.00
3 | CCC(=O)N1CCN(c2ccc(Nc3cc(NCc4cc(F)cc(F)c4)c(C(N)=O)nn3)cc2)CC1 [Compound 31] | < 6.00 | 8.00 to 9.00 | 6.00 to 7.00
4 | CC(=O)N1CCN(c2ccc(Nc3cc(NCc4cccc(F)c4)c(C(N)=O)nn3)cn2)CC1 [Compound 49] | < 6.00 | 6.00 to 7.00 | < 6.00
5 | CS(=O)(=O)c1ccc(Nc2cc(NCc3cccc(F)c3)c(C(N)=O)nn2)cc1 [Compound 84] | < 6.00 | 6.00 to 7.00 | < 6.00
6 | NC(=O)c1nnc(Nc2ccc(C(=O)N3CCOCC3)cc2)cc1NCc1cccc(F)c1 [Compound 80] | < 6.00 | 7.00 to 8.00 | 6.00 to 7.00
7 | CC(=O)N1CCN(c2ccc(Nc3cc(NCc4ccccc4F)c(C(N)=O)nn3)nc2)CC1 [Compound 28] | 6.00 to 7.00 | 8.00 to 9.00 | 7.00 to 8.00
8 | CCC(=O)N1CCN(c2ccc(Nc3cc(NCc4cccc5[nH]ccc45)c(C(N)=O)nn3)cc2)CC1 [Compound 110] | 7.00 to 8.00 | 8.00 to 9.00 | 7.00 to 8.00
9 | CCC(=O)N1CCC(c2ccc(Nc3cc(NCc4cccc(F)c4)c(C(N)=O)nn3)cc2)CC1 [Compound 26] | < 6.00 | 7.00 to 8.00 | < 6.00
10 | NC(=O)c1nnc(Nc2ccc(N3CCOCC3)cc2)cc1NCc1cccc(F)c1 [Compound 35] | < 6.00 | 7.00 to 8.00 | 6.00 to 7.00
11 | CC(=O)N(C)c1ccc(Nc2cc(NCc3cccc(F)c3)c(C(N)=O)nn2)cc1 [Compound 101] | < 6.00 | 6.00 to 7.00 | 6.00 to 7.00
12 | CCC(=O)N1CCC(Cn2cc(Nc3cc(NCc4cccc(F)c4F)c(C(N)=O)nn3)cn2)CC1 [Compound 129] | 6.00 to 7.00 | 8.00 to 9.00 | 6.00 to 7.00
13 | COc1ccccc1CNc1cc(Nc2ccc(N3CCN(C(C)=O)CC3)cc2)nnc1C(N)=O [Compound 24] | 6.00 to 7.00 | 7.00 to 8.00 | 7.00 to 8.00
14 | C[S+]([O-])Cc1ccc(Nc2cc(NCc3cccc(F)c3)c(C(N)=O)nn2)cc1 (stereo not drawn) [Compound 105] | 6.00 to 7.00 | 7.00 to 8.00 | 6.00 to 7.00
15 | COc1cc(Nc2cc(NCc3cccc(F)c3)c(C(N)=O)nn2)ccc1C(=O)N1CCCC1 [Compound 53] | < 6.00 | 7.00 to 8.00 | 6.00 to 7.00
16 | CC(=O)N1CCN(c2ccc(Nc3cc(NCc4ccc(Cl)s4)c(C(N)=O)nn3)cc2)CC1 [Compound 76] | < 6.00 | 7.00 to 8.00 | < 6.00
17 | NC(=O)c1nnc(Nc2cnn(C3CCCC3)c2)cc1NCc1cccc2ccsc12 [Compound 115] | < 6.00 | 7.00 to 8.00 | 7.00 to 8.00
18 | CC(=O)N1CCN(c2ccc(Nc3cc(NCc4cc(-n5ccnc5)ccc4F)c(C(N)=O)nn3)cc2)CC1 [Compound 103] | < 6.00 | 7.00 to 8.00 | 6.00 to 7.00
19 | NC(=O)c1nnc(Nc2ccc(N3CCNCC3)cc2)cc1NC1CCCCC1 [Compound 11, 4-(cyclohexylamino)-6-((4-(piperazin-1-yl)phenyl)amino)pyridazine-3-carboxamide] | < 6.00 | 6.00 to 7.00 | 6.00 to 7.00
20 | NC(=O)c1nnc(Nc2ccc(N3CCS(=O)(=O)CC3)cc2)cc1NCc1cccc(F)c1 [Compound 94] | < 6.00 | 8.00 to 9.00 | 6.00 to 7.00
21 | NC(=O)c1nnc(Nc2ccc(N3CCNCC3)cc2)cc1NCC1CCC1 [Compound 17] | < 6.00 | 6.00 to 7.00 | < 6.00
22 | CN(C)C(=O)C1CCN(c2ccc(Nc3cc(NCc4ccccc4F)c(C(N)=O)nn3)cc2)CC1 [Compound 86] | < 6.00 | 7.00 to 8.00 | 6.00 to 7.00
23 | NC(=O)c1nnc(Nc2cnn(CC3CCOCC3)c2)cc1NCc1cccc2ccsc12 [Compound 121] | 6.00 to 7.00 | 8.00 to 9.00 | 7.00 to 8.00
24 | NC(=O)c1nnc(Nc2cnn(CC3CC3)c2)cc1NCc1cccc(F)c1 [Compound 119] | < 6.00 | 7.00 to 8.00 | 6.00 to 7.00

More lines, now with the values ahead:

Row | pIC50 [1] | pIC50 [2] | pIC50 [3] | SMILES
25 | 6.00 to 7.00 | 8.00 to 9.00 | 7.00 to 8.00 | CCn1cc(Nc2cc(NCc3cccc4ccsc34)c(C(N)=O)nn2)cn1 [Compound 122]
26 | < 6.00 | 7.00 to 8.00 | 6.00 to 7.00 | NC(=O)c1nnc(Nc2cnn(C3CCCC3)c2)cc1NCc1cccc(F)c1F [Compound 116]
27 | 6.00 to 7.00 | 7.00 to 8.00 | 6.00 to 7.00 | CC(c1ccc(Nc2cc(NCc3cccc(F)c3)c(C(N)=O)nn2)cc1)S(C)(=O)=O (stereo not drawn) [Compound 96]
28 | < 6.00 | 7.00 to 8.00 | 6.00 to 7.00 | CC(=O)N1CCN(C(=O)c2ccc(Nc3cc(NCc4cccc(F)c4)c(C(N)=O)nn3)cc2)CC1 [Compound 81]
29 | < 6.00 | 6.00 to 7.00 | < 6.00 | CC(=O)N1CCN(c2ccc(Nc3cc(NCc4cccnc4)c(C(N)=O)nn3)cc2)CC1 [Compound 79]
30 | < 6.00 | 8.00 to 9.00 | 6.00 to 7.00 | CC(=O)N1CCC(Cn2cc(Nc3cc(NCc4cccc(F)c4F)c(C(N)=O)nn3)cn2)CC1 [Compound 126]
31 | < 6.00 | 7.00 to 8.00 | < 6.00 | CCC(=O)N1CCC(c2ccc(Nc3cc(NCc4cc(F)cc(F)c4)c(C(N)=O)nn3)cc2)CC1 [Compound 27]
32 | < 6.00 | 7.00 to 8.00 | 6.00 to 7.00 | CC(=O)N1CCN(c2ccc(Nc3cc(NCc4cccc(C)c4)c(C(N)=O)nn3)cc2)CC1 [Compound 47]
33 | < 6.00 | 7.00 to 8.00 | < 6.00 | CN(C(=O)C1CC1)c1ccc(Nc2cc(NCc3cccc(F)c3F)c(C(N)=O)nn2)cc1 [Compound 44]
34 | < 6.00 | 7.00 to 8.00 | 6.00 to 7.00 | CC(=O)N1CCN(c2ccc(Nc3cc(NCC4CCC4)c(C(N)=O)nn3)cc2)CC1 [Compound 16]
35 | < 6.00 | 7.00 to 8.00 | 6.00 to 7.00 | CC(=O)N1CCN(c2ccc(Nc3cc(NCc4cccc(C#N)c4)c(C(N)=O)nn3)cc2)CC1 [Compound 72]
36 | 6.00 to 7.00 | 7.00 to 8.00 | 7.00 to 8.00 | NC(=O)c1nnc(Nc2cnn(CC3CC3)c2)cc1NCc1cccc2ccsc12 [Compound 117]
37 | < 6.00 | 6.00 to 7.00 | 6.00 to 7.00 | NC(=O)c1nnc(Nc2ccc(N3CCNCC3)cc2)cc1NC1CCCC1 [Compound 13]
38 | 6.00 to 7.00 | 8.00 to 9.00 | 7.00 to 8.00 | CCC(=O)N1CCC(Cn2cc(Nc3cc(NCc4cccc5ccsc45)c(C(N)=O)nn3)cn2)CC1 [Compound 128]
39 | < 6.00 | 7.00 to 8.00 | 6.00 to 7.00 | NC(=O)c1nnc(Nc2ccc3c(c2)CS(=O)(=O)C3)cc1NCc1cccc(F)c1 [Compound 107]
40 | < 6.00 | 8.00 to 9.00 | 7.00 to 8.00 | CCC(=O)N1CCN(c2ccc(Nc3cc(NCc4cccc(F)c4F)c(C(N)=O)nn3)cc2)CC1 [Compound 34]
41 | < 6.00 | 6.00 to 7.00 | < 6.00 | NC(=O)c1nnc(Nc2cnccn2)cc1NCc1cccc(-n2ccnc2)c1 [Compound 111]
42 | < 6.00 | 7.00 to 8.00 | 6.00 to 7.00 | CS(=O)(=O)CCc1ccc(Nc2cc(NCc3cccc(F)c3)c(C(N)=O)nn2)cc1 [Compound 108]
43 | < 6.00 | 8.00 to 9.00 | 6.00 to 7.00 | NC(=O)c1nnc(Nc2cnn(CC3CCOCC3)c2)cc1NCc1cccc(F)c1F [Compound 124]
44 | < 6.00 | < 6.00 | < 6.00 | CC(=O)N1CCN(c2ccc(Nc3cc(NC(C)C)c(C(N)=O)nn3)cc2)CC1 [Compound 9]
45 | < 6.00 | 6.00 to 7.00 | 6.00 to 7.00 | CC(=O)Nc1cccc(Nc2cc(NC3CCC3)c(C(N)=O)nn2)c1 [Compound 7, 6-((3-acetamidophenyl)amino)-4-(cyclobutylamino)pyridazine-3-carboxamide]
